Laboratory results: patent US20260224588A1, “BENZODIAZEPINONE-DERIVED INHIBITORS OF EGFR AND HER2” (The Research Foundation for the State University of New York, priority 2023, published 2026)

Assays:
Test in all cases: KINOMEscan
Format in all cases: binding
Conditions in all cases: 1 μM of compound 4; read-out: POC
[1] = molecular target: T1, EPHA1 (Homo sapiens, UniProt P21709)
T1 construct: purchased Eurofins DiscoverX (KINOMEscan service)

[2] = molecular target: MYLK (Homo sapiens, UniProt Q15746)
[3] = molecular target: T2, FGFR3(G697C) (Homo sapiens, UniProt P22607, G697C)
T2 construct: purchased Eurofins DiscoverX Corporation

[4] = molecular target: T3, GRK1 (Homo sapiens, UniProt Q15835)
T3 construct: purchased Eurofins DiscoverX Corporation

[5] = molecular target: CDKL5 (Homo sapiens, UniProt O76039)
[6] = molecular target: T4, FGFR4 (Homo sapiens, UniProt P22455)
T4 construct: purchased Eurofins DiscoverX Corporation

[7] = molecular target: CAMK1D (Homo sapiens, UniProt Q8IU85)
[8] = molecular target: PKNB(M. tuberculosis) (Mycobacterium tuberculosis, UniProt P9WI81)
[9] = molecular target: T5, RIPK4 (Homo sapiens, UniProt P57078)
T5 construct: purchased Eurofins DiscoverX Corporation (KINOMEscan screening service)

[10] = molecular target: CDK7 (Homo sapiens, UniProt P50613)
[11] = molecular target: T6, ABL1(F317L)-nonphosphorylated (Homo sapiens, UniProt P00519, F317L)
T6 construct: purchased Eurofins DiscoverX Corporation

[12] = molecular target: T7, SRMS (Homo sapiens, UniProt Q9H3Y6)
T7 construct: purchased Eurofins DiscoverX (KINOMEscan service)

[13] = molecular target: T8, NEK9 (Homo sapiens, UniProt Q8TD19)
T8 construct: purchased Eurofins DiscoverX Corporation (KINOMEscan)

[14] = molecular target: T9, EGFR(G719S) (Homo sapiens, UniProt P00533, G719S)
T9 construct: purchased Eurofins DiscoverX (KINOMEscan service)

[15] = molecular target: T10, TNIK (Homo sapiens, UniProt Q9UKE5)
T10 construct: purchased Eurofins DiscoverX Corporation

[16] = molecular target: T11, TGFBR1 (Homo sapiens, UniProt P36897)
T11 construct: purchased Eurofins DiscoverX Corporation

[17] = molecular target: MET (Homo sapiens, UniProt P08581)
[18] = molecular target: T12, HIPK2 (Homo sapiens, UniProt Q9H2X6)
T12 construct: purchased Eurofins DiscoverX Corporation

[19] = molecular target: PIK3CB (Homo sapiens, UniProt P42338)
[20] = molecular target: CDC2L5 (Homo sapiens, UniProt Q14004)
[21] = molecular target: T13, FLT3 (Homo sapiens, UniProt P36888)
T13 construct: purchased Eurofins DiscoverX Corporation

[22] = molecular target: T14, RIPK2 (Homo sapiens, UniProt O43353)
T14 construct: purchased Eurofins DiscoverX Corporation (KINOMEscan screening service)

[23] = molecular target: T15, TYK2(JH2domain-pseudokinase) (Homo sapiens, UniProt P29597)
T15 construct: TYK2(JH2domain-pseudokinase); purchased Eurofins DiscoverX

[24] = molecular target: CSNK1A1L (Homo sapiens, UniProt Q8N752)
[25] = molecular target: CDK4-cyclinD1 (Homo sapiens, UniProt P11802)
[26] = molecular target: IRAK3 (Homo sapiens, UniProt Q9Y616)
[27] = molecular target: T16, FLT4 (Homo sapiens, UniProt P35916)
T16 construct: purchased Eurofins DiscoverX Corporation

[28] = molecular target: MET(M1250T) (Homo sapiens, UniProt P08581, M1250T)
[29] = molecular target: ACVRL1 (Homo sapiens, UniProt P37023)
[30] = molecular target: T17, EGFR(E746-A750del) (Homo sapiens, UniProt P00533, DEL746-750)
T17 construct: purchased Eurofins DiscoverX (KINOMEscan service)

[31] = molecular target: PKMYT1 (Homo sapiens, UniProt Q99640)
[32] = molecular target: BMPR2 (Homo sapiens, UniProt Q13873)
[33] = molecular target: AURKB (Homo sapiens, UniProt Q96GD4)
[34] = molecular target: EGFR(L858R) (Homo sapiens, UniProt P00533, L858R); design: purchased Eurofins DiscoverX (KINOMEscan service)
[35] = molecular target: DCAMKL2 (Homo sapiens, UniProt Q8N568)
[36] = molecular target: T18, EGFR(L747-S752del + P753S) (Homo sapiens, UniProt P00533, DEL747-752/P753S)
T18 construct: purchased Eurofins DiscoverX (KINOMEscan service)

[37] = molecular target: MLCK (Homo sapiens, UniProt Q32MK0)
[38] = molecular target: NEK6 (Homo sapiens, UniProt Q9HC98)

T1 sequence (P21709 26-976): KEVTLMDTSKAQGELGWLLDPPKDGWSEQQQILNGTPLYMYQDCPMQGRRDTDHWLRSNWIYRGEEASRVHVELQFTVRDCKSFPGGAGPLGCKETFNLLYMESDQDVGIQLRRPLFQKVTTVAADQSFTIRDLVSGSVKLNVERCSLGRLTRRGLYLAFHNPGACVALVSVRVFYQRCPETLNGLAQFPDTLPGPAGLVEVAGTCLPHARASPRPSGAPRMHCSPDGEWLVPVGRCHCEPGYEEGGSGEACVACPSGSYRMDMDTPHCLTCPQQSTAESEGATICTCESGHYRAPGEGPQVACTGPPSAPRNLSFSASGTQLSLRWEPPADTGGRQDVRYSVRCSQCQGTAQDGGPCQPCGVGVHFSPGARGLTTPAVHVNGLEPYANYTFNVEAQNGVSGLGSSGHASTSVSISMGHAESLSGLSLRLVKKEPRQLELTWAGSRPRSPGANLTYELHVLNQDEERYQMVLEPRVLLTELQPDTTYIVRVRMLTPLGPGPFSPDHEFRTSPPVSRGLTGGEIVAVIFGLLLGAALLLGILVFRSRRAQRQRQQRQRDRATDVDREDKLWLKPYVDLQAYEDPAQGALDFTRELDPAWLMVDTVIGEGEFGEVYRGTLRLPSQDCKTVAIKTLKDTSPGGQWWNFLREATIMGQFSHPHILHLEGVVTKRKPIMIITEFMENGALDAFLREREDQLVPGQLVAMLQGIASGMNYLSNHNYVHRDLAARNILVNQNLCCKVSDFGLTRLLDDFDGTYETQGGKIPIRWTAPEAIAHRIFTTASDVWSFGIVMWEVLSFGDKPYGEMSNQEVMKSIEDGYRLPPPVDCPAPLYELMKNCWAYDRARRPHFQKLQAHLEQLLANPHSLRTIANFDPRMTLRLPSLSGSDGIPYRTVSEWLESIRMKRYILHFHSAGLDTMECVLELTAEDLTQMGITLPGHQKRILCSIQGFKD
PKMYT1, sequence (Q99640 whole entry): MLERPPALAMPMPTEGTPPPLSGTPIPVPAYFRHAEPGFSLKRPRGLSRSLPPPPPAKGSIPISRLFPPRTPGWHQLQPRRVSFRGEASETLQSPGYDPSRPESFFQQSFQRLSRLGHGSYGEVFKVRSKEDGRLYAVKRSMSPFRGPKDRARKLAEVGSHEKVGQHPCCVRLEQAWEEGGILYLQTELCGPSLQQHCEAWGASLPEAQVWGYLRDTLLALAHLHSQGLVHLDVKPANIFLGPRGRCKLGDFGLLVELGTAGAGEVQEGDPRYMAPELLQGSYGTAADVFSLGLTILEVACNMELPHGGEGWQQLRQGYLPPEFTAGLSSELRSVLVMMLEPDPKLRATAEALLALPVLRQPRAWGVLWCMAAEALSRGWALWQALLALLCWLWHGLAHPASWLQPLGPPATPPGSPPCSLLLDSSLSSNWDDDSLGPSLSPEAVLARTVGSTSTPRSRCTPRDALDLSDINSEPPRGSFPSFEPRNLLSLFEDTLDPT
CSNK1A1L, sequence (Q8N752 whole entry): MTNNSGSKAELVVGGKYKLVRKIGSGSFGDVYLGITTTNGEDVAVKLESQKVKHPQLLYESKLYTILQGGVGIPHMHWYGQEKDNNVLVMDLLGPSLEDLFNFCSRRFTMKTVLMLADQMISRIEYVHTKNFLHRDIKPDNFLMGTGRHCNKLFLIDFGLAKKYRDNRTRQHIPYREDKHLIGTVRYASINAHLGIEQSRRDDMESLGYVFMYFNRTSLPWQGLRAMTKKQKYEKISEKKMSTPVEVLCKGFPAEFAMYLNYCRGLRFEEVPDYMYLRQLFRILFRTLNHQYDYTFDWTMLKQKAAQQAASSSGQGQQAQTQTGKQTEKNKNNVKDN
T16 sequence (P35916 25-1363): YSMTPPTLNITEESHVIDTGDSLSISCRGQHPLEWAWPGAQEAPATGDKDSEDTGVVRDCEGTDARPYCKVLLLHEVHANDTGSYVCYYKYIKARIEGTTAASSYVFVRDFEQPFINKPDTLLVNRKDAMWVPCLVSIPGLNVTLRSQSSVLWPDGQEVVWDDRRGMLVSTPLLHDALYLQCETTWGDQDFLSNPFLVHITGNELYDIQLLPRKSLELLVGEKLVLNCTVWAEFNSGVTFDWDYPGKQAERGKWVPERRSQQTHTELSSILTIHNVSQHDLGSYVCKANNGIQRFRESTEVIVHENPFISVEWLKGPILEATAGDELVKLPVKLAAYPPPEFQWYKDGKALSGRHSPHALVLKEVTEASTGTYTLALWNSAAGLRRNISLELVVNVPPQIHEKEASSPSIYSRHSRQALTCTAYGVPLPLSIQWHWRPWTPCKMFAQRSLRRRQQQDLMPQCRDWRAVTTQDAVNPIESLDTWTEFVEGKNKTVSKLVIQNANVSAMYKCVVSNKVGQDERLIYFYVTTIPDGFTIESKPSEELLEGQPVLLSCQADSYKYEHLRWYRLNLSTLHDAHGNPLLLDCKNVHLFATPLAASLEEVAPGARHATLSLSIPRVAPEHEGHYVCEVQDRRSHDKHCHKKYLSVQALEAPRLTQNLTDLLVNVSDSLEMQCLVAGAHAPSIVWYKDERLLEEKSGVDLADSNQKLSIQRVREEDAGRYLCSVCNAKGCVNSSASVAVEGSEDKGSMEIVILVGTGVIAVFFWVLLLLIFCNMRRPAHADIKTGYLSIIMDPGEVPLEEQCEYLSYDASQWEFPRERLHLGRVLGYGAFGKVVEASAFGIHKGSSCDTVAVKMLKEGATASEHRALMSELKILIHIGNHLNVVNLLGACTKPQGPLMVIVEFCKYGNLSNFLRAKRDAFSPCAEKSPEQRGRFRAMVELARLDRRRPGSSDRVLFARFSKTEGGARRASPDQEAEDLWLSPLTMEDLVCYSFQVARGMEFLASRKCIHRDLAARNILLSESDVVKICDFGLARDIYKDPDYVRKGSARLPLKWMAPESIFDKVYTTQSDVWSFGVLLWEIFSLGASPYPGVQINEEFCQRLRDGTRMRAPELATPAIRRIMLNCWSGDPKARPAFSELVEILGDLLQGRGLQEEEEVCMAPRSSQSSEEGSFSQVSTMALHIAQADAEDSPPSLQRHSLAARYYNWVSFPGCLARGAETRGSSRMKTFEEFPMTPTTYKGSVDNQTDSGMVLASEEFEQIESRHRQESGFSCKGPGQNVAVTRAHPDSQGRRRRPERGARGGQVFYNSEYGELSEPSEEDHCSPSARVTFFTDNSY
CDK7, sequence (P50613 whole entry): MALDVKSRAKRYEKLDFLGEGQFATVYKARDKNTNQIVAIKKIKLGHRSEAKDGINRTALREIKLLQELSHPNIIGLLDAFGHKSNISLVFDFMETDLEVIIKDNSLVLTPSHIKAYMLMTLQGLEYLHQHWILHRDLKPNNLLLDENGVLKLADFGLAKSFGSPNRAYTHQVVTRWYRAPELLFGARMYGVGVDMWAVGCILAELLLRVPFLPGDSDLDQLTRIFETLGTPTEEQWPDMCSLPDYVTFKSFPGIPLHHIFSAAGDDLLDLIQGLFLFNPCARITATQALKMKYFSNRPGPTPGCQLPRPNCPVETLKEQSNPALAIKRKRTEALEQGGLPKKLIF
CDKL5, sequence (O76039 whole entry): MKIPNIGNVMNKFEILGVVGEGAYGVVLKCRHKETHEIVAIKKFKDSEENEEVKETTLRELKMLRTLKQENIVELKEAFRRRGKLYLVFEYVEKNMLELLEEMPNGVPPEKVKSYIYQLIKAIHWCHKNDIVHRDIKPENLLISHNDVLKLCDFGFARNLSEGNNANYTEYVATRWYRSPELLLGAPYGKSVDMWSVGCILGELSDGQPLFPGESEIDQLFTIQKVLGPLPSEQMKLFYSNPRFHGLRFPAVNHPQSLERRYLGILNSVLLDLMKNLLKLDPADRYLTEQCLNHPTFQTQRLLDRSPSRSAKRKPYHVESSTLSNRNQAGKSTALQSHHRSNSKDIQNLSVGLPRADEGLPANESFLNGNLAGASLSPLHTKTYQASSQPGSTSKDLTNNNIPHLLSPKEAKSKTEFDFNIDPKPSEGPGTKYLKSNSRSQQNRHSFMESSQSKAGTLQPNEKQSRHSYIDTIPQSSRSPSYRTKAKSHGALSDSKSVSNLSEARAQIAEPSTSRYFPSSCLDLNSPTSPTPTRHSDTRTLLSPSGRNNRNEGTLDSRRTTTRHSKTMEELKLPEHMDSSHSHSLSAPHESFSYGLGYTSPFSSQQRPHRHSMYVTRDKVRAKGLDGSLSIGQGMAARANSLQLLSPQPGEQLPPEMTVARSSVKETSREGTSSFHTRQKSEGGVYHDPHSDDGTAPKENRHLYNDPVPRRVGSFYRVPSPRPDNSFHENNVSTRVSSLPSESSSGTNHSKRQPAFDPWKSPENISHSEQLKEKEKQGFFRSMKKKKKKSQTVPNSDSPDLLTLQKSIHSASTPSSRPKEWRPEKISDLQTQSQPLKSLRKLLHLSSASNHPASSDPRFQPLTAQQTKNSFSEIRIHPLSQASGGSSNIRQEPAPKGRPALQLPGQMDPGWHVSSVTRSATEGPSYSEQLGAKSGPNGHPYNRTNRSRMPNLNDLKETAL
T11 sequence (P36897 34-503): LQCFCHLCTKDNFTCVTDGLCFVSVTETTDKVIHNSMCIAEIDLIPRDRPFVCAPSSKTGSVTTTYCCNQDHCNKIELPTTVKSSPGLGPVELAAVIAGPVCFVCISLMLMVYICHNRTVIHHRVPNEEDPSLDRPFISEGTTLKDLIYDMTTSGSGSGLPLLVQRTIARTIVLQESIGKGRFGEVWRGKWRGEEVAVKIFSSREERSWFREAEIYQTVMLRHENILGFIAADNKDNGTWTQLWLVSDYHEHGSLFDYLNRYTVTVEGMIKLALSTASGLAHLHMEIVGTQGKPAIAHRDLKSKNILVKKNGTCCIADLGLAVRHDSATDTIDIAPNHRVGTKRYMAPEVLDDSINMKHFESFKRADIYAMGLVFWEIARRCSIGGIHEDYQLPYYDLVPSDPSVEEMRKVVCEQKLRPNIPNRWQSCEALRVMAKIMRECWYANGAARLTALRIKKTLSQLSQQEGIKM

For `C=CC(=O)Nc1ccc(OC)c(Nc2cc(-c3[nH]c(CC)nc3-c3cccc(NC(=O)c4cccc5c4NC(=O)c4ccccc4N5)c3)ccn2)c1` [Compound 4, N-(3-(5-(2-((5-Acrylamido-2-methoxyphenyl)amino)pyridin-4-yl)-2-ethyl-1H-imidazol-4-yl)phenyl)-11-oxo-10,11-dihydro-5H-dibenzo[b,e][1,4]diazepine-9-carboxamide], the remaining binding at 1 µM [1] was 100%, the remaining binding at 1 µM [2] was 84% and the remaining binding at 1 µM [3] was 100%. It also gave a remaining binding at 1 µM [4] of 94%, a remaining binding at 1 µM [5] of 98% and a remaining binding at 1 µM [6] of 100%. The remaining binding at 1 µM [7] was 100%, the remaining binding at 1 µM [8] was 97% and the remaining binding at 1 µM [9] was 100%. It also gave a remaining binding at 1 µM [10] of 49%, a remaining binding at 1 µM [11] of 37% and a remaining binding at 1 µM [12] of 61%. For the same compound, the remaining binding at 1 µM [13] was 83%, the remaining binding at 1 µM [14] was 13% and the remaining binding at 1 µM [15] was 33%. The remaining binding at 1 µM [16] was 75%, the remaining binding at 1 µM [17] was 69% and the remaining binding at 1 µM [18] was 100%. For the same compound, the remaining binding at 1 µM [19] was 90%, the remaining binding at 1 µM [20] was 74% and the remaining binding at 1 µM [21] was 100%. For the same compound, the remaining binding at 1 µM [22] was 62%, the remaining binding at 1 µM [23] was 100% and the remaining binding at 1 µM [24] was 91%. The remaining binding at 1 µM [25] was 94%, the remaining binding at 1 µM [26] was 39% and the remaining binding at 1 µM [27] was 100%. For the same compound, the remaining binding at 1 µM [28] was 89%, the remaining binding at 1 µM [29] was 75% and the remaining binding at 1 µM [30] was 13%. For the same compound, the remaining binding at 1 µM [31] was 99%, the remaining binding at 1 µM [32] was 88% and the remaining binding at 1 µM [33] was 100%. The remaining binding at 1 µM [34] was 5%, the remaining binding at 1 µM [35] was 100% and the remaining binding at 1 µM [36] was 16%. The remaining binding at 1 µM [37] was 86% and the remaining binding at 1 µM [38] was 100%.
